From patent US4868181A, “1,4-dihydropyridine derivatives with calcium agonist and alpha1 -antagonist activity” (E. I. Du Pont de Nemours and Company, priority 1987, dated 1989) come the findings set out here.

One test addresses alpha1 -adrenoceptors. The experiment in a line: [^3 H]-prazosin binding assay (affinity for alpha1-adrenoceptors). The note with it: rat brain membranes, 0.2 nM [^3 H]-prazosin, 60 minutes at 25°. Here is the method:
The [^3 H]-prazosin binding assay was carried out according to the method described by Timmermans, P. B. M. W. M., Schoop, A. M. C., and Van Zwieten, P. A.: Biochem Pharmacol., 31, 899-905, 1982 (1). The reaction mixture contained partially purified rat brain membranes (source of alpha1 -adrenoceptors), 0.2 nM [^3 H]-prazosin with or without potential displacer in Tris buffer. The mixture was incubated for 60 minutes at 25° and subsequently terminated by rapid filtration through glass fiber-filter. Receptor-bound [^3 H]-prazosin trapped in the filter was quantitated by scintillation counting. The inhibitory concentration (IC50) of potential displacer which gives 50% displacement of the total specifically bound [^3 H]-prazosin is presented as a measure of the affinity of such compound for the alpha1 -adrenoceptor.

The target in another test is T1, Ca^2 + channels (Rattus norvegicus, UniProt P22002).
T1 construct: rat cardiac microsomes (source of Ca^2 + channels); from tissue; host or cells: rat cardiac microsomes
The experiment in a line: [^3 H]-Nitrendipine binding assay (affinity for calcium channels). The note with it: rat cardiac microsomes, 0.5 nM [^3 H]-nitrendipine, 60 minutes at 25°. Here is the method: [^3 H]-Nitrendipine binding assay was carried out according to the method described by G. T. Bolger, et al., Biochem. Biophys. Res. Comm., 104, 1604-1609, 1982 (1). The reaction mixture contained rat cardiac microsomes (source of Ca^2 + channels), 0.5 nM [^3 H]-nitrendipinewith or without potential displacer in Tris buffer. The mixture was incubated for 60 minutes at 25° and subsequently terminated by rapid filtration through a glass fiber-filter. Membrane-bound [^3 H]-nitrendipine trapped in the filter was quantitated by scintillation counting. The inhibitory concentration (IC50) of potential displacer which gives 50% displacement of the total specifically bound [^3 H]-nitrendipine is presented as a measure of the affinity of such compound for the Ca^2 + channel.

For a further test, the system named is guinea pig left atria. Put plainly: Positive inotropic effect in guinea pig left atria. As to conditions: 37°; for EC50: left atria paced at 2Hz, cumulative addition to maximum 10^-4, read-out: EC50 (concentration that increases DT by 50% above the control DT); for Intrinsic Activity (ratio of the maximum effect of the test compound to that of Bay K 8644): relative to Bay K 8644, left atria paced at 2Hz. The protocol: Guinea pigs are killed by cervical dislocation. The left atria are removed and mounted at 1 gm resting tension in tissue baths containing oxygenated Krebs bicarbonate solution which is kept at 37°. The left atria are electrically paced at 2Hz with square wave pulses of 1 msec duration. The voltage is set at 1.5× threshold level.
After a one hour equilibration period, control values for developed tension (DT, gm) are recorded. Test compounds are then added to the baths, in a cumulative manner to a maximum concentration of 10^-4, to obtain a concentration-response curve. Treatment values of DT are obtained after the rug effect has reached a plateau and the exposure time for each concentration is 5-8 minutes. Percent change of the treatment value from the control value is calculated at each concentration of the test compound.

The structures appear in SMILES notation.

T1 sequence (P22002 whole entry, other chains not shown): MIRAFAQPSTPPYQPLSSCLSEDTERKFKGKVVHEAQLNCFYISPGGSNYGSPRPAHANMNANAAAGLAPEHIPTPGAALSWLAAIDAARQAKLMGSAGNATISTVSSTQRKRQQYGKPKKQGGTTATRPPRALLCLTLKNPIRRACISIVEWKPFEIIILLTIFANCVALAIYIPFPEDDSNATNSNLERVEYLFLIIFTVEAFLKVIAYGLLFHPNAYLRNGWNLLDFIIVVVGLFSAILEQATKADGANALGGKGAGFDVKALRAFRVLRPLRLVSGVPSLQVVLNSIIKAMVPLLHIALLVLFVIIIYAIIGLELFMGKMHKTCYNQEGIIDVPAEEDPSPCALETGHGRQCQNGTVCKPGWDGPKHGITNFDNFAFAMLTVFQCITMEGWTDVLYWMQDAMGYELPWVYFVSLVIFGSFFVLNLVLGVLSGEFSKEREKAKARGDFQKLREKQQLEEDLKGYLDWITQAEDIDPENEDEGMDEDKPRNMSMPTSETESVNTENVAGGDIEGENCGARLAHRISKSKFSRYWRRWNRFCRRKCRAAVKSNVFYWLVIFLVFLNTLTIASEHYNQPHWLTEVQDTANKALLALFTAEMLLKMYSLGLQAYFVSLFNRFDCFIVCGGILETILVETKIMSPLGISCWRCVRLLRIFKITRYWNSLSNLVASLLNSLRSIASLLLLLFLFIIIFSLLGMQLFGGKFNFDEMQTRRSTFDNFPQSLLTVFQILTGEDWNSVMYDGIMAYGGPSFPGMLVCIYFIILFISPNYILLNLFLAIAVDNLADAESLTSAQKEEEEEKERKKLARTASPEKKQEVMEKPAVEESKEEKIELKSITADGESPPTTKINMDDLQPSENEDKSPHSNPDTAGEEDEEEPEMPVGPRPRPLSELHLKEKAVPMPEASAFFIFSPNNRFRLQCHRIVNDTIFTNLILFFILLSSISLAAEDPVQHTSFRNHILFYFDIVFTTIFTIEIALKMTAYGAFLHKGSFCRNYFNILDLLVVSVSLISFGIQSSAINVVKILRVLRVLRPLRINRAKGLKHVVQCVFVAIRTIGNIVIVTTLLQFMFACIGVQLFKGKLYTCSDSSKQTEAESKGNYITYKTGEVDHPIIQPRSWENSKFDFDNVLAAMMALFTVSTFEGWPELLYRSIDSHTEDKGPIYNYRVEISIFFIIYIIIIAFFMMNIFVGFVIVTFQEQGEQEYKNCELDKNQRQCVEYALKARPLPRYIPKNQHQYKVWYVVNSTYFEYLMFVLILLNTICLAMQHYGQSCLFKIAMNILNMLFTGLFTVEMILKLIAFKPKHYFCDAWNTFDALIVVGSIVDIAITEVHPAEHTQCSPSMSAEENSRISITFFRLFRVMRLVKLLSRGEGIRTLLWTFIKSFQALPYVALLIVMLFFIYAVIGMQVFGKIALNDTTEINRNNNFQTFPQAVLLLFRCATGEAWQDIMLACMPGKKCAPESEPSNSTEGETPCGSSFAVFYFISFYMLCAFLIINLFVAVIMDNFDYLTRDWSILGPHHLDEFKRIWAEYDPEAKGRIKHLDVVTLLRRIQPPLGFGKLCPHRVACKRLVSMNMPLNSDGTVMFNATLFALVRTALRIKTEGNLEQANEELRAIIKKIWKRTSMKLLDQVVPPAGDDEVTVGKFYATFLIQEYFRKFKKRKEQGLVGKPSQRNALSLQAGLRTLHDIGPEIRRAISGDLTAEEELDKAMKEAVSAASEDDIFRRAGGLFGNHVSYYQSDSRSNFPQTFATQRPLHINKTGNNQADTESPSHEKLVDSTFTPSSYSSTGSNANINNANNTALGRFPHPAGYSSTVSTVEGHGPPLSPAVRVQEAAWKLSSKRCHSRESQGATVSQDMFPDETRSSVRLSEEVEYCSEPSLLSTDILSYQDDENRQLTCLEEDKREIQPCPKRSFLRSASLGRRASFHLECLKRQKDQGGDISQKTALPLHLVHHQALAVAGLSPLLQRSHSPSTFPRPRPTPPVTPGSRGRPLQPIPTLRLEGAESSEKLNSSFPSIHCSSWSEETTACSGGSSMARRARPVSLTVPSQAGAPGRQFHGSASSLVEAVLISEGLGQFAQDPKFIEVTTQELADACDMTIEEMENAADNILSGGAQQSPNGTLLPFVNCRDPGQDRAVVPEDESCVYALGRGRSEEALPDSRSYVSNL
T1 sequence (P54290 25-944 partner limits assumed, other chains not shown): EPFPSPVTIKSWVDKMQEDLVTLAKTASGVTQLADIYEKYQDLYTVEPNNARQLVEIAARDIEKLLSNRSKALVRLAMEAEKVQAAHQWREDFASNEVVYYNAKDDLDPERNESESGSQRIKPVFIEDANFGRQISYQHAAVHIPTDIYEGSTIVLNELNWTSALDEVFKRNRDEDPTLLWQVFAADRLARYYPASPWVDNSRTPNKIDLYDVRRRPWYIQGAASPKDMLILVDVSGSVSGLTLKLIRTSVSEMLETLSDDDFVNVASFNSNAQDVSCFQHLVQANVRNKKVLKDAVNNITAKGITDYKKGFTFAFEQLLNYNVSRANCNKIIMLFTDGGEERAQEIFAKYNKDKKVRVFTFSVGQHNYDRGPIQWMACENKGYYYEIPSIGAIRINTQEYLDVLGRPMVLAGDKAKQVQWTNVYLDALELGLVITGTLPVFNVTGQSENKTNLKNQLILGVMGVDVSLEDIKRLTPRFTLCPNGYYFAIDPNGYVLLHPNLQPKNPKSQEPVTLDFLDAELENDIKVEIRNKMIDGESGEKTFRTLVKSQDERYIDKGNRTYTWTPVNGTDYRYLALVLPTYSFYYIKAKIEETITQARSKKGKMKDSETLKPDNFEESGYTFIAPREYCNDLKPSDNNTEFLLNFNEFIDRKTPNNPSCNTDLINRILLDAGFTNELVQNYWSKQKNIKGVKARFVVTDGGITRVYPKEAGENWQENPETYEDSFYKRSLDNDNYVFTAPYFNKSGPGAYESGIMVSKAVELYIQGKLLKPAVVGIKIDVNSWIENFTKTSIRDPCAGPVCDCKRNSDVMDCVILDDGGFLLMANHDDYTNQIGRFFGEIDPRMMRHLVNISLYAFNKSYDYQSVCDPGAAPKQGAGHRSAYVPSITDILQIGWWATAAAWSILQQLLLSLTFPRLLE
T1 sequence (P54290 945-1091 partner limits assumed, other chains not shown): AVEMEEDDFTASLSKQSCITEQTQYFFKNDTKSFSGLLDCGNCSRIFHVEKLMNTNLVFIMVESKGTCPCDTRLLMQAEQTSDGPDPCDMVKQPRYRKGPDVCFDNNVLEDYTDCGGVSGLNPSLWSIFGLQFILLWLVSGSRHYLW

As a reminder, the IC50 is the concentration that gives 50% inhibition. Regarding `COc1ccccc1N1CCN(CCOC(=O)C2=C(C)NC(C)=C([N+](=O)[O-])C2c2ccccc2C(F)(F)F)CC1` (stereo not shown) [Example 2, 1,4-Dihydro-2,6-Dimethyl-5-nitro-4-[2-(trifluoromethyl)phenyl]-[2-[4-(2-methoxyphenyl)-1-piperazinyl]ethyl]ester-3-pyridinecarboxylic acid], the values for the IC50 on alpha1 -adrenoceptors and at Ca^2 + channels were 800 nM and 29 nM, respectively. Also, the EC50 in the test on guinea pig left atria amounted to 44 nM. Besides, the “Intrinsic Activity (ratio of the maximum effect of the test compound to that of Bay K 8644)” value with guinea pig left atria worked out at 145%.
The like results for `COc1ccccc1N1CCN(CCOC(=O)C2=C(C)NC(C)=C([N+](=O)[O-])C2c2ccccc2Cl)CC1` (stereo not shown) [Example 5] were, in that order, 490 nM, 73 nM, 560 nM and 100%.
The like results for `COc1cccc(OC)c1OCCNCCOC(=O)C1=C(C)NC(C)=C([N+](=O)[O-])C1c1ccccc1C(F)(F)F` (stereo not shown) [Example 13] were, in that order, over 10000 nM, 830 nM, 30000 nM and 50%.
For `COc1ccccc1N1CCN(CCCCOC(=O)C2=C(C)NC(C)=C([N+](=O)[O-])C2c2ccccc2C(F)(F)F)CC1` (stereo not shown) [Example 56], the IC50 on alpha1 -adrenoceptors turned out to be 300 nM. Moreover, at Ca^2 + channels, the IC50 was determined as 300 nM. In addition, in the test with guinea pig left atria, the EC50 was determined as 6000 nM and the “Intrinsic Activity (ratio of the maximum effect of the test compound to that of Bay K 8644)” value was found to be 100%.
Take `COC(=O)C1=C(C)NC(C)=C([N+](=O)[O-])C1c1ccccc1OCCN1CCN(c2ccccc2OC)CC1` (stereo not shown) [Example 58]: the IC50 at alpha1 -adrenoceptors was 130 nM. Also, the IC50 at Ca^2 + channels amounted to 850 nM. Besides, in the test on guinea pig left atria, the EC50 is 1900 nM and the “Intrinsic Activity (ratio of the maximum effect of the test compound to that of Bay K 8644)” value was found to be 90%.
In turn, `COC(=O)C1=C(C)NC(C)=C([N+](=O)[O-])C1c1ccccc1OCCCCCN1CCN(c2ccccc2OC)CC1` (stereo not shown) [Example 59, 1,4-dihydro-2,6-dimethyl-4[2-(5-(4-(2-methoxyphenyl)-1-piperazinyl)pentoxyl)-phenyl]-5-nitro-methyl ester-3-pyridinecarboxylic acid] displayed an IC50 at alpha1 -adrenoceptors of 130 nM. For the same compound, the IC50 at Ca^2 + channels turned out to be 290 nM. For the same compound, in the test with guinea pig left atria, the EC50 was 1000 nM and the “Intrinsic Activity (ratio of the maximum effect of the test compound to that of Bay K 8644)” value was determined as 35%.
As for `COC(=O)C1=C(C)NC(C)=C([N+](=O)[O-])C1c1ccccc1OCCCCN1CCN(c2ncccn2)CC1` (stereo not shown) [Example 60, 1,4-dihydro-2,6-dimethyl-'nitro-4-[2-(4-(4-(2-pyrimidinyl)-piperazinyl)butoxy)phenyl]methylester-36pyridinecarboxylic acid], the results for the IC50 on alpha1 -adrenoceptors and on Ca^2 + channels were 4900 nM and 1000 nM, respectively. In the test on guinea pig left atria, the EC50 was 1000 nM. Further, the “Intrinsic Activity (ratio of the maximum effect of the test compound to that of Bay K 8644)” value in the test with guinea pig left atria stood at 50%.
On to `COC(=O)C1=C(C)NC(C)=C([N+](=O)[O-])C1c1ccccc1OCCCCCCCCCCN1CCN(c2ccccc2OC)CC1` (stereo not shown) [Example 61, 1,4-dihydro-2,6-dimethyl-4[2(10-(4-(2-methoxyphenyl)-piperazinyl)decyloxy)phenyl]-5-nitro-methyl ester-3-pyridinecarboxylic acid], for which the figures for the IC50 at alpha1 -adrenoceptors and on Ca^2 + channels were 1100 nM and 67 nM, respectively. The EC50 in the test with guinea pig left atria is over 100000 nM. In the test on guinea pig left atria, the “Intrinsic Activity (ratio of the maximum effect of the test compound to that of Bay K 8644)” value is given as 10%.
The like results for `COC(=O)C1=C(C)NC(C)=C([N+](=O)[O-])C1c1cccc(OCCN2CCN(c3ccccc3OC)CC2)c1` (stereo not shown) [Example 69] were, in that order, 350 nM, 4600 nM, over 100000 nM and 10%.
For `COC(=O)C1=C(C)NC(C)=C([N+](=O)[O-])C1c1cccc(OC)c1OCCN1CCN(c2ccccc2OC)CC1` (stereo not shown) [Example 87], the 50% inhibitory concentration (IC50) on alpha1 -adrenoceptors turned out to be 48 nM; at Ca^2 + channels it was 2900 nM. Besides, in the test on guinea pig left atria, the EC50 is over 100000 nM. Further, in the test on guinea pig left atria, the “Intrinsic Activity (ratio of the maximum effect of the test compound to that of Bay K 8644)” value is listed as 0%.
For `COC(=O)C1=C(C)NC(C)=C([N+](=O)[O-])C1c1ccccc1OCCCN1CCN(c2ccccc2OC)CC1` (stereo not shown) [Example 88], in that order: 260 nM, 4800 nM, 2000 nM and 50%.
The like results for `COC(=O)C1=C(C)NC(C)=C([N+](=O)[O-])C1c1cccc(OCCCN2CCN(c3ccccc3OC)CC2)c1` (stereo not shown) [Example 89] were, in that order, 71 nM, 4000 nM, 20000 nM and 20%.
For `COC(=O)C1=C(C)NC(C)=C([N+](=O)[O-])C1c1ccccc1OCCCCN1CCN(c2ccccc2OC)CC1` (stereo not shown) [Example 105], in that order: 180 nM, 220 nM, 3000 nM and 20%.
On to `COC(=O)C1=C(C)NC(C)=C([N+](=O)[O-])C1c1cccc(OCC2OC2CN2CCN(c3ccccc3OC)CC2)c1` (stereo not shown) [Example 136], for which the IC50 on alpha1 -adrenoceptors and at Ca^2 + channels was over 10000 nM each time.
On to `COC(=O)C1=C(C)NC(C)=C([N+](=O)[O-])C1c1ccc(OCCCN2CCN(c3ccccc3OC)CC2)c([N+](=O)[O-])c1` (stereo not shown) [Example 137], for which the half-inhibitory concentration (IC50) on alpha1 -adrenoceptors was 440 nM; on Ca^2 + channels it was 6100 nM.
Consider `COC(=O)C1=C(C)NC(C)=C([N+](=O)[O-])C1c1cc([N+](=O)[O-])ccc1OCCCCN1CCN(c2ccccc2OC)CC1` (stereo not shown) [Example 138], for which the IC50 at alpha1 -adrenoceptors is 280 nM; on Ca^2 + channels it was 220 nM.
For `COC(=O)C1=C(C)NC(C)=C([N+](=O)[O-])C1c1cc(Cl)cc(Cl)c1OCCCCCN1CCN(c2ccccc2OC)CC1` (stereo not shown) [Example 141], the IC50 on alpha1 -adrenoceptors came to 830 nM; at Ca^2 + channels, 630 nM.
The like results for `COC(=O)C1=C(C)NC(C)=C([N+](=O)[O-])C1c1cc(Cl)ccc1OCCCCN1CCN(c2ccccc2OC)CC1` (stereo not shown) [Example 143] were, in that order, 350 nM and 190 nM.
The like results for `C=CCc1cccc(C2C(C(=O)OC)=C(C)NC(C)=C2[N+](=O)[O-])c1OCCCCN1CCN(c2ccccc2OC)CC1` (stereo not shown) [Example 144] were, in that order, 310 nM and 1300 nM.
For `COC(=O)C1=C(C)NC(C)=C([N+](=O)[O-])C1c1cc(Cl)ccc1OCCCCCN1CCN(c2ccccc2OC)CC1` (stereo not shown) [Example 145], in that order: 630 nM and 180 nM.
Take `COc1ccccc1N1CCN(CCCCOc2ccccc2C2C(C(=O)OC(C)(C)C)=C(C)NC(C)=C2[N+](=O)[O-])CC1` (stereo not shown) [Example 146]: the IC50 stood at 990 nM at alpha1 -adrenoceptors and 470 nM on Ca^2 + channels.
On to `COC(=O)C1=C(C)NC(C)=C([N+](=O)[O-])C1c1cccc(OCCCN2CCN(c3ccccc3OC)CC2)c1[N+](=O)[O-]` (stereo not shown) [Example 149], for which the IC50 on alpha1 -adrenoceptors stood at 290 nM; at Ca^2 + channels, 8900 nM.
For `COC(=O)C1=C(C)NC(C)=C([N+](=O)[O-])C1c1cccc(OCCCCN2CCN(c3ccccc3OC)CC2)c1[N+](=O)[O-]` (stereo not shown) [Example 150], in that order: 220 nM and 4000 nM.
Regarding `COC(=O)C1=C(C)NC(C)=C([N+](=O)[O-])C1c1cccc(OCCCCCN2CCN(c3ccccc3OC)CC2)c1[N+](=O)[O-]` (stereo not shown) [Example 151], the IC50 at alpha1 -adrenoceptors was determined as 200 nM; at Ca^2 + channels it was 4700 nM.
For `COC(=O)C1=C(C)NC(C)=C([N+](=O)[O-])C1c1cc(OC)ccc1OCCCCN1CCN(c2ccccc2OC)CC1` (stereo not shown) [Example 152], in that order: 270 nM and 690 nM.
As to `COC(=O)C1=C(C)NC(C)=C([N+](=O)[O-])C1c1cc(OC)ccc1OCCCCCN1CCN(c2ccccc2OC)CC1` (stereo not shown) [Example 153], the figures for the IC50 at alpha1 -adrenoceptors and at Ca^2 + channels were 120 nM and 880 nM, respectively.
The like results for `COC(=O)C1=C(C)NC(C)=C([N+](=O)[O-])C1c1ccccc1OCCN1CCN(c2ncccn2)CC1` (stereo not shown) [Example 154] were, in that order, 9300 nM and 1400 nM.
For `COC(=O)C1=C(C)NC(C)=C([N+](=O)[O-])C1c1ccccc1OCCCCCN1CCN(c2ncccn2)CC1` (stereo not shown) [Example 155], in that order: 2600 nM and 250 nM.
